Laboratory results taken from patent US12692261B2, “Substituted heterocyclic compounds and therapeutic uses thereof” (Bayer Aktiengesellschaft, priority 2020, dated 2026).
pIC50: −log10 of the molar value. Several values for one entry are separate records, joined by “and”; a condition that tells them apart may be missing. Identical values can stand only once. Like-named read-outs stand apart in the source and are kept apart here.

Assays:
[1] = target: T1, full-length human CSNK1A1 (Homo sapiens, UniProt P48729); assay: CSNK1A1 Assay 2 (ADP-Glo, 1 μM ATP, substrate biotin-Ahx-KRRRAL-pS-VASLPGL); assay type: biochemical; conditions: Table 3, read-out: CSNK1A1 Assay 2 IC50 [mol/l] (median)
T1 construct: N-terminal Glutathion-S-Transferase (GST) and full-length human CSNK1A1; purchased Life Technologies PV4174; host or cells: baculovirus infected insect cells
Procedure, shortened: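 GST-tagged full-length human CSNK1A1 from baculovirus-infected insect cells (about 0.0375 ng/μL), preincubated 15 min at 22 °C with compound in HEPES pH 7.5 buffer, with 1 μM ATP and biotin-Ahx-KRRRAL-pS-VASLPGL substrate. ADP formed read by ADP-Glo luminescence.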

[2] = target: T2, wild-type Epidermal Growth Factor Receptor (EGFR) (Homo sapiens, UniProt P00533); assay: WT-EGFR Kinase Assay (TR-FRET, 2 mM ATP); assay type: biochemical
T2 construct: a fragment of human EGFR (amino acids R669 to A1210); made in house; host or cells: Sf9 insect cells
Procedure, shortened: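 GST-fused human EGFR fragment (R669-A1210) from Sf9 cells, typically 7.6 pg/μL, pre-incubated with compound 15 min at 22° C in Hepes pH 7.0 buffer with MgCl2, DTT and vanadate; biotinylated peptide substrate. After EDTA stop, phosphopeptide detected by TR-FRET (anti-phosphotyrosine Tb-cryptate/streptavidin-XL665), 665/620 nm emission ratio.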

[3] = EGFR Wildtyp 2 mM ATP IC50 [mol/l] (median), Table 4
[4] = read-out: EGFR Wildtyp 2 mM ATP IC50 [mol/l] (median), Table 4

T2 sequence (P00533 669-1210): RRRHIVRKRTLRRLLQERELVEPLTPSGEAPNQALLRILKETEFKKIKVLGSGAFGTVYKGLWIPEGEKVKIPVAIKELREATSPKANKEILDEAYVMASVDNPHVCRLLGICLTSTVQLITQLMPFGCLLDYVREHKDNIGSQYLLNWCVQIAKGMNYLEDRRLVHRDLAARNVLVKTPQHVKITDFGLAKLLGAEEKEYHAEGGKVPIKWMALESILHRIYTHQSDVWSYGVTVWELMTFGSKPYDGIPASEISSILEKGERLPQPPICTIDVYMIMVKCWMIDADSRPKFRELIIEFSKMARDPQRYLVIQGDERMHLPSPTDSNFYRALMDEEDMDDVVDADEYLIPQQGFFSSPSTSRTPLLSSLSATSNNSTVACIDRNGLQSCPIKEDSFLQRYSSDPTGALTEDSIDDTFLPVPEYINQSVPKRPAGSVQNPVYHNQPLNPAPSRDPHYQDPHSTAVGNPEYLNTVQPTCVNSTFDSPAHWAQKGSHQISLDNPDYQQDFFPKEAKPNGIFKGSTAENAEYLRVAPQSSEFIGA
T1 sequence (P48729 whole entry): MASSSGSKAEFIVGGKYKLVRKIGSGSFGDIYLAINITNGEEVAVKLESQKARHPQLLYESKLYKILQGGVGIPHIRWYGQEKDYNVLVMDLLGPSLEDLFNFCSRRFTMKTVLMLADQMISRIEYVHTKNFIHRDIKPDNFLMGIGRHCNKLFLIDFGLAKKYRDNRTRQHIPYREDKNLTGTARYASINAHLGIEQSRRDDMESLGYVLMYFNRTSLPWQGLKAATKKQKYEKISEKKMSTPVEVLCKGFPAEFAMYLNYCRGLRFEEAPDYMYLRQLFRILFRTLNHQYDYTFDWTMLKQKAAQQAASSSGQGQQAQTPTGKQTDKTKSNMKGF

Row | SMILES | pIC50 [1] | pIC50 [2, 3] | pIC50 [2, 4]
1 | COc1cnc2c(-c3ccccn3)c(-c3ccnc(NC(=O)C(CC(F)F)c4ccc(F)cc4)c3)[nH]c2c1 (single isomer, unassigned) [Example 82, 4,4-difluoro-2-(4-fluorophenyl)-N-{4-[6-methoxy-3-(pyridin-2-yl)-1H-pyrrolo[3,2-b]pyridin-2-yl]pyridin-2-yl}butanamide] | 8.57 | < 4.70 | 
2 | O=C(Nc1cc(-c2[nH]c3c(O[C@H]4CCOC4)ncnc3c2-c2ccccn2)ccn1)C(CC(F)F)c1ccc(F)cc1 (single isomer, unassigned) [Example 74, (2R or S)-4,4-difluoro-2-(4-fluorophenyl)-N-{4-[4-{[(3S)-oxolan-3-yl]oxy}-7-(pyridin-2-yl)-5H-pyrrolo[3,2-d]pyrimidin-6-yl]pyridin-2-yl}butanamide] | 7.45 |  | < 4.70
3 | O=C(Nc1cc(-c2[nH]c3cc(Cl)nnc3c2-c2ccccn2)ccn1)C(CC(F)F)c1ccc(F)cc1 (racemic) [Example 68, (2RS)—N-{4-[3-chloro-7-(pyridin-2-yl)-5H-pyrrolo[3,2-c]pyridazin-6-yl]pyridin-2-yl}-4,4-difluoro-2-(4-fluorophenyl)butanamide] | 8.16 | < 4.70 | 
4 | O=C(Nc1cc(-c2[nH]c3cc(Cl)cnc3c2-c2ccccn2)ccn1)C(CC(F)F)c1ccc(F)cc1 (single isomer, unassigned) [Example 89, (−)—N-{4-[6-chloro-3-(pyridin-2-yl)-1H-pyrrolo[3,2-b]pyridin-2-yl]pyridin-2-yl}-4,4-difluoro-2-(4-fluorophenyl)butanamide] | 7.05 |  | < 4.70
5 | Cc1ccnc2c(-c3ccccn3)c(-c3ccnc(NC(=O)C(CC(F)F)c4ccc(F)cc4)c3)[nH]c12 (centres unmarked) [Example 84, 4,4-difluoro-2-(4-fluorophenyl)-N-{4-[7-methyl-3-(pyridin-2-yl)-1H-pyrrolo[3,2-b]pyridin-2-yl]pyridin-2-yl}butanamide] | 8.32 | < 4.70 | 
6 | O=C(Nc1cc(-c2[nH]c3ncc(F)nc3c2-c2ccccn2)ccn1)C(CC(F)F)c1ccc(F)cc1 (single isomer, unassigned) [Example 64, (2R or S)-4,4-difluoro-2-(4-fluorophenyl)-N-{4-[2-fluoro-7-(pyridin-2-yl)-5H-pyrrolo[2,3-b]pyrazin-6-yl]pyridin-2-yl}butanamide] | 7.64 |  | < 4.70
7 | O=C(Nc1cc(-c2[nH]c3c(OCC(F)F)ncnc3c2-c2ccccn2)ccn1)C(CC(F)F)c1ccc(F)cc1 (racemic) [Example 78, (2RS)—N-{4-[4-(2,2-difluoroethoxy)-7-(pyridin-2-yl)-5H-pyrrolo[3,2-d]pyrimidin-6-yl]pyridin-2-yl}-4,4-difluoro-2-(4-fluorophenyl)butanamide] | 8.29 | < 4.70 | 
8 | O=C(Nc1cc(-c2[nH]c3c(O[C@H]4CCOC4)cc(F)nc3c2-c2ccccn2)ccn1)C(CC(F)F)c1ccc(F)cc1 (single isomer, unassigned) [Example 54, (2R or S)-4,4-difluoro-N-{4-[5-fluoro-7-{[(3S)-oxolan-3-yl]oxy}-3-(pyridin-2-yl)-1H-pyrrolo[3,2-b]pyridin-2-yl]pyridin-2-yl}-2-(4-fluorophenyl)butanamide] | 8.37 | < 4.70 | 
9 | Cc1cnc2c(-c3ccccn3)c(-c3ccnc(NC(=O)C(CC(F)F)c4ccc(F)cc4)c3)[nH]c2n1 (centres unmarked) [Example 85, 4,4-difluoro-2-(4-fluorophenyl)-N-{4-[3-methyl-7-(pyridin-2-yl)-5H-pyrrolo[2,3-b]pyrazin-6-yl]pyridin-2-yl}butanamide] | 8.38 | < 4.70 | 
10 | CN1CCN(c2cc(F)nc3c(-c4ccccn4)c(-c4ccnc(NC(=O)C(CC(F)F)c5ccc(F)cc5)c4)[nH]c23)CC1 (racemic) [Example 56, (2RS)-4,4-difluoro-N-{4-[5-fluoro-7-(4-methylpiperazin-1-yl)-3-(pyridin-2-yl)-1H-pyrrolo[3,2-b]pyridin-2-yl]pyridin-2-yl}-2-(4-fluorophenyl)butanamide] | 8.50 | < 4.70 | 
11 | O=C(Nc1cc(-c2[nH]c3c(O[C@H]4CCOC4)cc(F)nc3c2-c2ccccn2)ccn1)C(CC(F)F)c1ccc(F)cc1 (mixture of isomers) [Example 53, (2RS)-4,4-difluoro-N-{4-[5-fluoro-7-{[(3S)-oxolan-3-yl]oxy}-3-(pyridin-2-yl)-1H-pyrrolo[3,2-b]pyridin-2-yl]pyridin-2-yl}-2-(4-fluorophenyl)butanamide] | 8.22 | < 4.70 | 
12 | O=C(Nc1cc(-c2[nH]c3c(OCC(F)F)ncnc3c2-c2ccccn2)ccn1)C(CC(F)F)c1ccc(F)cc1 (single isomer, unassigned) [Example 79, (2R or S)—N-{4-[4-(2,2-difluoroethoxy)-7-(pyridin-2-yl)-5H-pyrrolo[3,2-d]pyrimidin-6-yl]pyridin-2-yl}-4,4-difluoro-2-(4-fluorophenyl)butanamide] | 8.51 | < 4.70 | 
13 | O=C(Nc1cc(-c2[nH]c3ccc(F)nc3c2-c2ccccn2)ccn1)C(CC(F)F)c1ccc(F)cc1 (racemic) [Example 1, 4,4-difluoro-2-(4-fluorophenyl)-N-{4-[5-fluoro-3-(pyridin-2-yl)-1H-pyrrolo[3,2-b]pyridin-2-yl]pyridin-2-yl}butanamide] | 8.00 | < 4.70 | 
14 | O=C(Nc1cc(-c2[nH]c3c(O[C@H]4CCOC4)cc(F)nc3c2-c2ccccn2)ccn1)C(CC(F)F)c1ccc(F)cc1 (single isomer, unassigned) [Example 55, (2R or S)-4,4-difluoro-N-{4-[5-fluoro-7-{[(3S)-oxolan-3-yl]oxy}-3-(pyridin-2-yl)-1H-pyrrolo[3,2-b]pyridin-2-yl]pyridin-2-yl}-2-(4-fluorophenyl)butanamide] | 7.74 |  | < 4.70
15 | O=C(Nc1cc(-c2[nH]c3ccc(F)nc3c2-c2ccccn2)ccn1)[C@@H](CC(F)F)c1ccc(F)cc1 (single isomer, unassigned) [Example 2] | 8.87 | 4.74 and < 4.70 | 
16 | O=C(Nc1cc(-c2[nH]c3c(OCC(F)F)ncnc3c2-c2ccccn2)ccn1)C(CC(F)F)c1ccc(F)cc1 (single isomer, unassigned) [Example 80, (2R or S)—N-{4-[4-(2,2-difluoroethoxy)-7-(pyridin-2-yl)-5H-pyrrolo[3,2-d]pyrimidin-6-yl]pyridin-2-yl}-4,4-difluoro-2-(4-fluorophenyl)butanamide] | 7.77 |  | < 4.70
